Where a name gives a salt, the structure may show the parent alone.

For the first assay, the system named is Acinetobacter baumannii ATCC 17978. Briefly: Antimicrobial susceptibility testing: 90% growth inhibitory concentration (IC90) determination. It is filed as cell-based. The conditions noted are these: 90% growth inhibitory concentration; Acinetobacter baumannii ATCC17978; Iso-Sensitest broth, OD 600 nm over 16h; read-out: ATCC17978 IC90. In a few lines: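 Growth of the Acinetobacter baumannii strain was followed by optical density at 600 nm every 20 minutes for 16h at 35±2° C. Inoculum was ~5×10^(5) CFU/ml in Iso-Sensitest medium, with twofold compound dilutions (e.g. 50 to 0.097 μM final). The 90% inhibitory concentration was derived in log-phase growth.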
Consider `CCc1cc(Nc2nccn3c(-c4ccc(OC)c(F)c4F)cnc23)ccc1C(=O)N[C@H](CN)CO` [Example 539, N-[(1R)-1-(aminomethyl)-2-hydroxy-ethyl]-4-[[3-(2,3-difluoro-4-methoxy-phenyl)imidazo[1,2-a]pyrazin-8-yl]amino]-2-ethyl-benzamide; formic acid], for which the IC90 turned out to be 410 nM.
Same read-out and setting: with `CCc1cc(Nc2nccn3c(-c4ccc(OC)c(F)c4F)cnc23)ccc1C(=O)NCCCCCCCCN` [Example 540, N-(8-aminooctyl)-4-((3-(2,3-difluoro-4-methoxyphenyl)imidazo[1,2-a]pyrazin-8-yl)amino)-2-ethylbenzamide hydrochloride] the figure was 100 nM.

Staying with this assay, now noted: Acinetobacter baumannii, ATCC17978, 16 h, 90% growth inhibitory concentration; Acinetobacter baumannii ATCC17978; Iso-Sensitest broth, OD 600 nm over 16h; read-out: ATCC17978 IC90.
As for `CCc1cc(Nc2nccn3c(-c4ccc(OC)c(F)c4F)cnc23)ccc1C(=O)NC[C@H](C)N` [Example 522, (S)-N-(2-aminopropyl)-4-((3-(2,3-difluoro-4-methoxyphenyl)imidazo[1,2-a]pyrazin-8-yl)amino)-2-ethylbenzamide hydrochloride], the 90% effect concentration (IC90) was determined as 260 nM.
With `CCc1cc(Nc2nccn3c(-c4ccc(OC)c(F)c4F)cnc23)ccc1C(=O)NCC(N)CC` (stereo not drawn) [Example 523, N-(2-aminobutyl)-4-((3-(2,3-difluoro-4-methoxyphenyl)imidazo[1,2-a]pyrazin-8-yl)amino)-2-ethylbenzamide hydrochloride], the IC90 turned out to be 250 nM.
In the case of `CCc1cc(Nc2nccn3c(-c4ccc(OC)c(F)c4F)cnc23)ccc1C(=O)NCC(C)(C)N` [Example 524, N-(2-amino-2-methylpropyl)-4-((3-(2,3-difluoro-4-methoxyphenyl)imidazo[1,2-a]pyrazin-8-yl)amino)-2-ethylbenzamide hydrochloride], the IC90 came out at 600 nM.
Take `CCc1cc(Nc2nccn3c(-c4ccc(OC)c(F)c4F)cnc23)ccc1C(=O)NCC(N)CO` (stereo not drawn) [Example 525, N-(2-amino-3-hydroxypropyl)-4-((3-(2,3-difluoro-4-methoxyphenyl)imidazo[1,2-a]pyrazin-8-yl)amino)-2-ethylbenzamide hydrochloride]: the IC90 was found to be 350 nM.
On the same count and under the same terms, the figure for `CCc1cc(Nc2nccn3c(-c4ccc(OC)c(F)c4F)cnc23)ccc1C(=O)NCC1(F)CNC1` [Example 526, 4-((3-(2,3-difluoro-4-methoxyphenyl)imidazo[1,2-a]pyrazin-8-yl)amino)-2-ethyl-N-((3-fluoroazetidin-3-yl)methyl)benzamide hydrochloride] is 210 nM; for `CCc1cc(Nc2nccn3c(-c4ccc(OC)c(F)c4F)cnc23)ccc1C(=O)NCC1CCCN1` (stereo not drawn) [Example 527, 4-((3-(2,3-difluoro-4-methoxyphenyl)imidazo[1,2-a]pyrazin-8-yl)amino)-2-ethyl-N-(pyrrolidin-2-ylmethyl)benzamide hydrochloride] it is 480 nM.
With `CCc1cc(Nc2nccn3c(-c4ccc(OC)c(F)c4F)cnc23)ccc1C(=O)NCC1(O)CCNC1` (stereo not drawn) [Example 528, 4-((3-(2,3-difluoro-4-methoxyphenyl)imidazo[1,2-a]pyrazin-8-yl)amino)-2-ethyl-N-((3-hydroxypyrrolidin-3-yl)methyl)benzamide hydrochloride], the 90% effect concentration (IC90) was 250 nM.
`CCc1cc(Nc2nccn3c(-c4ccc(OC)c(F)c4F)cnc23)ccc1C(=O)NC[C@@H]1CCNC1` [Example 529, (R)-4-((3-(2,3-difluoro-4-methoxyphenyl)imidazo[1,2-a]pyrazin-8-yl)amino)-2-ethyl-N-(pyrrolidin-3-ylmethyl)benzamide hydrochloride]: the 90% effect concentration (IC90) worked out at 110 nM.
Still for that read-out and setting: the figure for `CCc1cc(Nc2nccn3c(-c4ccc(OC)c(F)c4F)cnc23)ccc1C(=O)NC[C@H]1CCNC1` [Example 530, (S)-4-((3-(2,3-difluoro-4-methoxyphenyl)imidazo[1,2-a]pyrazin-8-yl)amino)-2-ethyl-N-(pyrrolidin-3-ylmethyl)benzamide hydrochloride] is 110 nM; for `CCc1cc(Nc2nccn3c(-c4ccc(OC)c(F)c4F)cnc23)ccc1C(=O)NC[C@@H]1CNC[C@@H]1O` [Example 531, 4-((3-(2,3-difluoro-4-methoxyphenyl)imidazo[1,2-a]pyrazin-8-yl)amino)-2-ethyl-N-(((3S,4R)-4-hydroxypyrrolidin-3-yl)methyl)benzamide hydrochloride] it is 150 nM; for `CCc1cc(Nc2nccn3c(-c4ccc(OC)c(F)c4F)cnc23)ccc1C(=O)NCC1CN(C(=O)CN)C1` [Example 532, N-[[1-(2-aminoacetyl)azetidin-3-yl]methyl]-4-[[3-(2,3-difluoro-4-methoxy-phenyl)imidazo[1,2-a]pyrazin-8-yl]amino]-2-ethyl-benzamide; formic acid] it is 61 nM.
For the molecule `CCc1cc(Nc2nccn3c(-c4ccc(OC)c(F)c4F)cnc23)ccc1C(=O)NCCCCCc1nnc2ccccn12` [Example 533, N-(5-([1,2,4]triazolo[4,3-a]pyridin-3-yl)pentyl)-4-((3-(2,3-difluoro-4-methoxyphenyl)imidazo[1,2-a]pyrazin-8-yl)amino)-2-ethylbenzamide], the concentration for an effect of 90% (IC90) stood at 100 nM.
As for `CCc1cc(Nc2nccn3c(-c4ccc(OC)c(F)c4F)cnc23)ccc1C(=O)NCCCCCCN1CCCCC1` [Example 534, 4-((3-(2,3-difluoro-4-methoxyphenyl)imidazo[1,2-a]pyrazin-8-yl)amino)-2-ethyl-N-(6-(piperidin-1-yl)hexyl)benzamide], the IC90 stood at 41 nM.
`CCc1cc(Nc2nccn3c(-c4ccc(OC)c(F)c4F)cnc23)ccc1C(=O)NCCCCCCn1ccnc1` [Example 535, N-(6-(1H-imidazol-1-yl)hexyl)-4-((3-(2,3-difluoro-4-methoxyphenyl)imidazo[1,2-a]pyrazin-8-yl)amino)-2-ethylbenzamide]: the IC90 came to 85 nM.
Regarding `CCc1cc(Nc2nccn3c(-c4ccc(OC)c(F)c4F)cnc23)ccc1C(=O)NC/C=C/CN` [Example 536, N-[(E)-4-aminobut-2-enyl]-4-[[3-(2,3-difluoro-4-methoxyphenyl)imidazo[1,2-a]pyrazin-8-yl]amino]-2-ethylbenzamide], the IC90 turned out to be 24 nM.
Regarding `CCc1cc(Nc2nccn3c(-c4ccc(OC)cc4C(F)(F)F)cnc23)ccc1C(=O)NC` [Example 537, 2-ethyl-4-[[3-[4-methoxy-2-(trifluoromethyl)phenyl]imid-azo[1,2-a]pyrazin-8-yl]amino]-N-methyl-benzamide], the concentration for an effect of 90% (IC90) came out at 207 nM.
Consider `CNC(=O)c1ccc(Nc2nccn3c(-c4ccc(OC)c(F)c4F)cnc23)cc1C` [Example 538, 4-((3-(2,3-difluoro-4-methoxyphenyl)imidazo[1,2-a]pyrazin-8-yl)amino)-N,2-dimethylbenzamide], for which the IC90 amounted to 27 nM.
Regarding `C#CCNC(=O)c1ccc(Nc2nccn3c(-c4ccc(OC)c(F)c4F)cnc23)cc1CC` [Example 541, 4-[[3-(2,3-difluoro-4-methoxyphenyl)imidazo[1,2-a]pyrazin-8-yl]amino]-2-ethyl-N-prop-2-ynylbenzamide], the IC90 was 62 nM.
Turning to `CCc1cc(Nc2nccn3c(-c4ccc(OC(F)F)c(F)c4F)cnc23)ccc1C(=O)NCCC(=O)N1CCNCC1` [Example 542, 4-((3-(4-(difluoromethoxy)-2,3-difluorophenyl)imidazo[1,2-a]pyrazin-8-yl)amino)-2-ethyl-N-(3-oxo-3-(piperazin-1-yl)propyl)benzamide 2,2,2-trifluoroacetate], the IC90 worked out at 54 nM.
On to `CCc1cc(Nc2nccn3c(-c4ccc(OC)c(F)c4F)cnc23)ccc1C(=O)NCC1CCNCC1` [Example 543, 4-((3-(2,3-difluoro-4-methoxyphenyl)imidazo[1,2-a]pyrazin-8-yl)amino)-2-ethyl-N-(piperidin-4-ylmethyl)benzamide formate], for which the 90% effect concentration (IC90) was found to be 66 nM.
Turning to `CCc1cc(Nc2nccn3c(-c4ccc(Oc5ncccn5)c(F)c4F)cnc23)ccc1C(=O)NCCCNC(=O)C1CCNCC1` [Example 544, N-(3-(4-((3-(2,3-difluoro-4-(pyrimidin-2-yloxy)phenyl)imidazo[1,2-a]pyrazin-8-yl)amino)-2-ethylbenzamido)propyl)piper-idine-4-carboxamide formate], the IC90 turned out to be 290 nM.
For the molecule `CCc1cc(Nc2nccn3c(-c4ccc(Oc5ncccn5)c(F)c4F)cnc23)ccc1C(=O)NCCCNC(=O)C1CCN(CC2CCNC2)CC1` (stereo not drawn) [Example 545, N-(3-(4-((3-(2,3-difluoro-4-(pyrimidin-2-yloxy)phenyl)imidazo[1,2-a]pyrazin-8-yl)amino)-2-ethylbenzamido)propyl)-1-(pyrrolidin-3-ylmethyl)piperidine-4-carboxamide formate], the concentration for an effect of 90% (IC90) was determined as 310 nM.
Regarding `CCc1cc(Nc2nccn3c(-c4ccc(OC)c(F)c4F)cnc23)ccc1C(=O)NCC1CCN(C(=O)C2CCNCC2)CC1` [Example 546, 4-((3-(2,3-difluoro-4-methoxyphenyl)imidazo[1,2-a]pyrazin-8-yl)amino)-2-ethyl-N-((1-(piperidine-4-carbonyl)piperidin-4-yl)methyl)benzamide 2,2,2-trifluoroacetate], the concentration for an effect of 90% (IC90) is 70 nM.
Regarding `CCc1cc(Nc2nccn3c(-c4ccc(OC(F)F)c(F)c4F)cnc23)ccc1C(=O)NCC1CCN(CC2CNC2)CC1` [Example 547, N-((1-(azetidin-3-ylmethyl)piperidin-4-yl)methyl)-4-((3-(4-(difluoromethoxy)-2,3-difluorophenyl)imidazo[1,2-a]pyrazin-8-yl)amino)-2-ethylbenzamide formate], the 90% effect concentration (IC90) was found to be 160 nM.
`CCc1cc(Nc2nccn3c(-c4ccc(Oc5ncccn5)c(F)c4F)cnc23)ccc1C(=O)NCC1CCNCC1` [Example 548, 4-((3-(2,3-difluoro-4-(pyrimidin-2-yloxy)phenyl)imidazo[1,2-a]pyrazin-8-yl)amino)-2-ethyl-N-(piperidin-4-ylmethyl)benzamide formate]: the 90% effect concentration (IC90) came out at 470 nM.
